Tests used:
[1] = system: detached tracheas obtained from guinea pigs; assay: Broncholytic action on detached tracheas (histamine spasm); design: species or system guinea pig; conditions: comparative tests
[2] = system: heart; assay: Heart and circulatory action, comparative tests with papaverine (Langendorff hearts / dogs); design: species or system guinea pig; dog
Procedure: The compounds of the invention were tested in detached guinea pig hearts by the method of Langendorff (Pfluger's Arch. 61 (1895) 291) in respect of the coronary flow, the inotropic action and the heart frequency. Also there were tested in anaesthetized dogs which had been subjected to a thoracostomy.
The significant parameters of the heart and circulatory activity in this case were determined by means of electromagnetic flux measurement and pressure measurement in the interior of the heart ventricle.

With `COc1ccc(Cc2nccc3cc(OC)c(OC)cc23)cc1OC` [papaverine] the “duration of action compared to the compounds of the invention” value [1] was “substantially shorter duration”, the “inotropy compared with the compounds of the invention” value [2] was “smaller inotropy” and the “duration of action compared with the compounds of the invention” value ([2]; heart and circulatory action) was “substantially shorter duration of action”.
